The text below walks through data of patent US20250002955A1, “Method for Promoting Production of Exopolysaccharide by Bifidobacterium Bacteria” (TOHOKU UNIVERSITY, priority 2021, published 2025).

Common to all, as to format: cell-based
For experiment [1], the system named is Bifidobacterium breve AT-APC-FucE1 strain. The experiment in a line: Influence of presence or absence of L-fucose in culture medium on EPS production amount by AT-APC-FucE1 strain. The note with it: 0.5% sugar in mMRS culture medium, anaerobic, 37° C., 96 hours. On the procedure: The 0.5% Glu mMRS culture medium was inoculated with the AT-APC-FucE1 strain, and pre-culturing was implemented anaerobically at 37° C. for 24 hours. An amount of 100 μL of the pre-cultured culture solution was inoculated into each of a 0.5% Fuc mMRS culture medium (mMRS liquid culture medium comprising 0.5 wt. % of L-fucose) and a 0.5% Glu mMRS culture medium, and then cultured anaerobically at 37° C. for 96 hours.
The amount of crude EPS extracted from the supernatant of each culture solution was approximately the same (13.33 mg/1000 mL). However, when the amount of protein in these crude EPS samples was measured, and the amount of protein was subtracted from the amount of crude EPS, the amount of EPS produced in the culture medium that used D-glucose (that is, the 0.5% Glu mMRS culture medium) was 9.34 mg/1000 mL, whereas the amount of EPS produced in the culture medium that used L-fucose (that is, the 0.5% Fuc mMRS culture medium) was 13.14 mg/1000 mL.

The subject of experiment [2] is Bifidobacterium animalis subsp. lactis JCM10602 strain. The experiment in a line: Induction of EPS production by L-fucose in JCM10602 strain. The note with it: anaerobic, 37° C.; for amount of EPS produced, extracted with ethanol / amount of EPS produced, extracted with trichloracetic acid: 0.5% sugar in mMRS culture medium, 96 hours, culture supernatant. The procedure:
In order to confirm whether the production of EPS is induced by L-fucose in other bacteria of the genus Bifidobacterium, the following test was carried out using the JCM10602 strain and the JCM1192 strain.
Note that the JCM10602 strain is Bifidobacterium animalis subsp. lactis (i.e., Bifidobacterium lactis), which is frequently used as a probiotic and is known to produce EPS at a high level, and the JCM1192 strain is a standard strain of Bifidobacterium breve, which is the same species as AT-APC-FucE1.
The JCM10602 strain was anaerobically cultured in a 0.5% Fuc mMRS culture medium and in a 0.5% Glu mMRS culture medium at 37° C. for 96 hours by the method described in Test 3 above.
When the EPS extracted from the culture supernatant was assayed, the amount of EPS produced in the culture medium using D-glucose (that is, the 0.5% Glu mMRS culture medium) was 132.97 mg/1000 mL (when extracted with trichloracetic acid) and 4.74 mg/1000 mL (when extracted with ethanol), whereas the amount of EPS produced in the culture medium using L-fucose (that is, the 0.5% Fuc mMRS culture medium) was 166.2 mg/1000 mL (when extracted with trichloracetic acid) and 13.33 mg/1000 mL (when extracted with ethanol).

Experiment [3] has as its system Bifidobacterium breve JCM1192 strain. Kind of experiment: Induction of EPS production by L-fucose in JCM1192 strain. The note with it: JCM1192, standard strain of Bifidobacterium breve. The procedure:
In order to confirm whether the production of EPS is induced by L-fucose in other bacteria of the genus Bifidobacterium, the following test was carried out using the JCM10602 strain and the JCM1192 strain. Note that the JCM10602 strain is Bifidobacterium animalis subsp. lactis (i.e., Bifidobacterium lactis), which is frequently used as a probiotic and is known to produce EPS at a high level, and the JCM1192 strain is a standard strain of Bifidobacterium breve, which is the same species as AT-APC-FucE1.

In experiment [4] the test system is Bifidobacterium breve AT-APC-FucE1 strain. The experiment in a line: Confirmation of EPS production through culturing of AT-APC-FucE1 strain (transmission electron microscope). As to conditions: 1% Fuc mMRS culture medium vs 1% Glu mMRS culture medium, anaerobic, 37° C., 12 hours, transmission electron microscope (FIGS. 4 and 5). The source says:
An mMRS liquid culture medium comprising 0.5 wt. % and an mMRS liquid culture medium comprising 1 wt. % of D-glucose (hereinafter, the respective mMRS liquid culture mediums are also referred to as a “0.5% Glu mMRS culture medium” and a “1% Glu mMRS culture medium”, respectively) (composition: 10 g/L of beef extract, 5 g/L of yeast extract, 2 g/L of ammonium citrate, 5 g/L of sodium acetate, 0.1 g/L of magnesium sulfate, 0.05 g/L of manganese sulfate, 2 g/L of dipotassium hydrogen phosphate, 0.5 g/L of L-cysteine hydrochloride, and 0.5% or 1% D-glucose) were prepared. The 0.5% Glu mMRS culture medium was inoculated with the AT-APC-FucE1 strain, and pre-culturing was implemented anaerobically at 37° C. for 24 hours.
The 1% Fuc mMRS culture medium was then inoculated with 100 μL of the pre-cultured culture solution, and anaerobic culturing was carried out at 37° C. The AT-APC-FucE1 strain was collected from the culture solution that had been cultured for 12 hours, after which the bacterial cells were washed with phosphate-buffered saline (PBS), and subsequently, the bacterial cells were immobilized on a membrane, and the EPS production by the bacterial cells was confirmed using a transmission electron microscope. […]

For the compound `O=C[C@H](O)[C@@H](O)[C@H](O)[C@H](O)CO` [D-glucose, reference compound], in experiment [1], the “amount of EPS produced (amount of protein subtracted from amount of crude EPS)” value worked out at 9.34 mg/1000 mL and the “amount of crude EPS extracted from the supernatant of culture solution” value is given as roughly 13.33 mg/1000 mL. For the same compound, in experiment [2], the “amount of EPS produced, extracted with ethanol” value worked out at 4.74 mg/1000 mL and the “amount of EPS produced, extracted with trichloracetic acid” value worked out at 132.97 mg/1000 mL.

Turning to `C[C@H](O)[C@@H](O)[C@@H](O)[C@H](O)C=O` [L-fucose], in experiment [1], the “amount of EPS produced (amount of protein subtracted from amount of crude EPS)” value is 13.14 mg/1000 mL and the “amount of crude EPS extracted from the supernatant of culture solution” value was roughly 13.33 mg/1000 mL. Moreover, the “induction of EPS production” value in experiment [3] was “significant production induction by L-fucose was not confirmed”. Moreover, in experiment [2] (0.5% Fuc mMRS vs 0.5% Glu mMRS culture medium, 96 hours (FIG. 7)), the “production of EPS (electron microscope observation)” value is listed as “improved”. In addition, in experiment [2], the “amount of EPS produced, extracted with ethanol” value came out at 13.33 mg/1000 mL and the “amount of EPS produced, extracted with trichloracetic acid” value is 166.2 mg/1000 mL. In addition, the “EPS production by the bacterial cells” value in experiment [4] was “remarkably promoted”.
